Experimental data as given in patent US20220106304A1, “Transcription Factor BRN2 Inhibitory Compounds as Therapeutics and Methods for Their Use” (The University of British Columbia, priority 2018, published 2022).

Columns and labels:
[1] = target: T1, BRN2 (Homo sapiens, UniProt P20265); test: cell-based; conditions: negative = activation; for inhibition at 10 µM: read-out: % BRN2 Inhibition (10 μM), 10 μM compound, 24 hours, 42D^ENZR cells stably expressing BRN2-luciferase reporter; for inhibition at 30 µM: read-out: % BRN2 Inhibition (30 μM), 30 μM compound, 24 hours, 42D^ENZR cells stably expressing BRN2-luciferase reporter
T1 sequence (P20265 1-443): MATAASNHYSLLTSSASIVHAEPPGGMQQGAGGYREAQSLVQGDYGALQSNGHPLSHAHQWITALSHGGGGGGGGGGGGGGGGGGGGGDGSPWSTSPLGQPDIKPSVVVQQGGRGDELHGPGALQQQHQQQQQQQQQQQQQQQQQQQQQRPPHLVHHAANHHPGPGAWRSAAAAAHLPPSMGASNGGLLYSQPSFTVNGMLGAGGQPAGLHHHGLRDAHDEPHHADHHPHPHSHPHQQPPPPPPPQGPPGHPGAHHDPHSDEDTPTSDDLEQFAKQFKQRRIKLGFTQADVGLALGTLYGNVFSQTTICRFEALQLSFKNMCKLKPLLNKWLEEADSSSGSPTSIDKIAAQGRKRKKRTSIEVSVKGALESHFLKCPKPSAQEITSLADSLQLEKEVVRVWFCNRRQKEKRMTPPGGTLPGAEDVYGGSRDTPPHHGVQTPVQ
From the text: Decreased expression of luciferase protein is validated via western blot to confirm downregulation and avoid false positive molecules that inhibit luciferase protein activity and not BRN2-drive luciferase expression. Molecules are prioritized by their inhibition potency to measure direct interaction with BRN2 in Step 2.
In TABLES 1 and 2, when a single value is mentioned in columns Met Stab % and T½, it refers to compound's stability in MLM and when two values are given they represent HLM/MLM. There is a distinction in TABLES 1 and 2 difference between “Active” and “Specific” or “Specificity”. Compounds are first tested to quantify inhibition of BRN2 transcriptional activity in a luciferase assay to determine “Activity” at […] and 30 μM concentrations. […] Where data is not available “na” is inserted. Where data has yet to be calculated the notation “nc” is used.

[2] = Liver microsome metabolic stability, MLM; format: in vitro ADME; conditions: MLM (single value or second of two), 1 μM compound, 0.25 mg/mL protein; for Met Stab % (60 mins HLM/MLM): percent remaining at 60 min, 1 mM NADPH; for half-life at 1 µM: mouse, liver microsomes, pH 7.4, read-out: T1/2 in (mins HLM/MLM)
Protocol: (§1) Potassium phosphate buffer (Kphos) was prepared by adding 0.647 g potassium phosphate monobasic (KH2PO4) and 3.527 g potassium phosphate dibasic ([…]) to 400 mL of Milli-Q water. pH of the buffer was adjusted to 7.4 and volume was made up to 500 mL.
(§2) Microsomes (20 mg/mL) were diluted in KH2PO4 buffer to prepare a concentration of 0.357 mg/mL.
(§3) Stock solutions of BRN2 inhibitors were prepared in DMSO at a concentration of 1 mM
(§4) A stock solution of 3.33 mM NADPH (3.33×) was prepared by dissolving appropriate amount of NADPH in KH2PO4 buffer.
(§5) Total Incubation volume: 100 μL
(§6) Compound concentration: 1 μM
(§7) Protein Concentration: 0.25 mg/mL
(§8) An 1120 μL aliquot of Kphos buffer (50 mM, pH 7.4) containing liver microsomes (0.357 mg/mL) were added to individual 2 mL tubes (final concentration 0.25 mg/mL). Test compounds (1 mM) and positive controls were directly spiked into respective tubes to prepare a concentration of 1.428 μM (final concentration 1 μM). From the above mix, 70 μL was added to individual wells of 96 well reaction plates and pre-incubated in a 37° C. water bath for 5 min. All the reactions were initiated by adding 30 μL of 3.33 mM NADPH (final concentration 1 mM). Reactions without NADPH and buffer controls (minus NADPH) at 0 min and 60 min were also incubated to rule out non-NADPH metabolism or chemical instability in the incubation buffer. All reactions were terminated using 100 μL of ice-cold acetonitrile containing internal standard at 0, 5, 15, 30 and 60 min. The plates were centrifuged at 4000 RPM for 15 min and 100 μL aliquots were submitted for analysis by LC-MS/MS.
(§9) Samples were monitored for parent compounds disappearance in MRM mode using LC-MS/MS.
(§10) The percent remaining of test compounds and positive control in each sample was determined by considering peak area ratio in the 0 minute sample as 100%. The Half-life of compounds in microsomes is calculated by formula:
(§11) Half-life (t½) (min)=0.693/k, where k is gradient of line determined from plot of peak area ratio (compound peak area/internal standard peak area) against time.
(§12) In vitro intrinsic clearance (CL'int) (units in mL/min/kg) was calculated using the formula.
(§13) [formula] • For liver microsomes, scaling factor used was 45 mg microsomal protein per gm liver. • Indicates liver weight (gm) which varies species wise. For mice the liver weights are 90 gm.
(§14) Where data is not available “na” is inserted.

[3] = Liver microsome metabolic stability, HLM; format: in vitro ADME; conditions: HLM (first of two values), 1 μM compound, 0.25 mg/mL protein; for Met Stab % (60 mins HLM/MLM): percent remaining at 60 min, 1 mM NADPH; for half-life at 1 µM: human, liver microsomes, pH 7.4, read-out: T1/2 in (mins HLM/MLM)
Protocol: as §1, §2, §3, §4, §5, §6, §7, §8, §9, §10, §11, §12, §13, §14

| Structure (SMILES) | inhibition at 10 µM [1] [%] | inhibition at 30 µM [1] [%] | Met Stab % (60 mins HLM/MLM) [2] [%] | half-life at 1 µM [2] [min] | Met Stab % (60 mins HLM/MLM) [3] [%] | half-life at 1 µM [3] [min] |
| --- | --- | --- | --- | --- | --- | --- |
| c1ccc2c(c1)CCC2c1cnn(-c2nc3ccccc3s2)c1 (stereo not drawn) [VPC-7-43] | 2 | 41 | 5 | 14 | 20 | 27 |
| c1ccc2c(c1)CCC2c1ccc(-c2nc3ccccc3s2)o1 (stereo not drawn) [VPC-7-44] | 83 | 93 | 44 | 52 | 62 | > 60 |
| Cn1c(-c2ccc(-c3ccccc3F)o2)nc2c(F)cccc21 [VPC-18-31, 4-Fluoro-2-(5-(2-fluorophenyl)furan-2-yl)-1-methyl-1H-benzo[d]imidazole] | 67.9 | 77.8 | 0 | – | 17 | 2 |
| O=[N+]([O-])c1ccc2nc(-c3ccc(-c4ccccc4F)o3)[nH]c2c1 [VPC-18-32, 2-(5-(2-Fluorophenyl)furan-2-yl)-6-nitro-1H-benzo[d]imidazole] | 83.7 | 95.5 | 4 | 12 | 20 | 26 |
| c1ccc(-c2nc(-c3cc4ccccc4o3)cs2)cc1 [VPC-18-33, 4-(Benzofuran-2-yl)-2-phenylthiazole] | 22.4 | 57.2 | 1 | 10 | 30 | 36 |
| COc1ccccc1-c1ccc(-c2nc3ccccc3n2C)o1 [VPC-18-35, 2-(5-(2-Methoxyphenyl)furan-2-yl)-1-methyl-1H-benzo[d]imidazole] | 51.6 | 95.8 | 0 | 5 | 4 | 13 |
| CCn1c(-c2ccc(-c3ccccc3)o2)nc2ccccc21 [VPC-18-36, 1-Ethyl-2-(5-phenylfuran-2-yl)-1H-benzo[d]imidazole] | 57.5 | 93.4 | 2 | 13 | 15 | 22 |
| Clc1ccc2cc(-c3csc(N4CC5CC4CO5)n3)oc2c1 (stereo not drawn) [VPC-18-91, 5-(4-(6-chlorobenzofuran-2-yl)thiazol-2-yl)-2-oxa-5-azabicyclo[2.2.1]heptane] | 70 | 96 | 2 | 11 | – | – |
| Clc1ccc2nc(-c3ccc(-c4ccccc4)o3)[nH]c2c1 [VPC-18-92, 6-chloro-2-(5-phenylfuran-2-yl)-1H-benzo[d]imidazole] | 83 | 98.4 | 0 | 6 | – | – |
| Fc1ccc(-c2nc(-c3nc4ccc(C(F)(F)F)cc4o3)cs2)o1 [VPC-18-93] | -9.9 | 30.2 | 26 | 34 | – | – |
| Clc1ccc2cc(-c3csc(-c4ccn[nH]4)n3)oc2c1 [VPC-18-96, 4-(6-chlorobenzofuran-2-yl)-2-(1H-pyrazol-5-yl)thiazole] | 83.5 | 92.5 | 35 | 45 | – | – |
| FC(F)(F)c1ccc2cc(-c3csc(-c4ncco4)n3)oc2c1 [VPC-18-98, 2-(4-(6-(trifluoromethyl)benzofuran-2-yl)thiazol-2-yl)oxazole] | 84 | 86 | 53 | > 60 | – | – |
| Clc1ccc2cc(-c3csc(-c4ncco4)n3)oc2c1 [VPC-18-99] | 29.3 | 39.2 | 28 | 36 | – | – |
| Fc1sc(-c2ccco2)nc1-c1cc2ccc(C(F)(F)F)cc2o1 [VPC-18-100] | 8.8 | 56.3 | 1 | 10 | – | – |
| CN1CCN(c2ccc(-c3nc4ccc(C(F)(F)F)cc4n3C)o2)CC1 [VPC-18-102] | 22.6 | 55.5 | 0 | 7 | – | – |
| FC(F)(F)n1c(-c2ccc(-c3ccccc3)o2)nc2ccccc21 [VPC-18-103] | 88.5 | 95.3 | 0 | 9 | – | – |
| FC(F)(F)c1ccc2cc(-c3csc(-c4cocn4)n3)oc2c1 [VPC-18-106] | 90.6 | 90 | 7 | 16 | – | – |
| Clc1ccc2nc(-c3csc(-c4ccco4)n3)oc2c1 [VPC-18-107] | 36.9 | 66.9 | 7 | 8 | – | – |
| O=C1CCN(c2nc(-c3cc4ccc(Cl)cc4o3)cs2)C1 [VPC-18-109] | 81.7 | 91.5 | 4 | 13 | – | – |
| FC(F)(F)c1ccc2cc(-c3csc(-c4cc[nH]c4)n3)oc2c1 [VPC-18-111] | 96.2 | 98.6 | 38 | 48 | – | – |
| c1ccc2c(-c3cnc(-c4ccoc4)s3)coc2c1 [VPC-18-112] | 41.8 | 81.6 | 1 | 9 | – | – |
| Oc1ccc2cc(-c3csc(-c4ccco4)n3)oc2c1 [VPC-18-113] | 94 | 94 | 3 | 12 | – | – |
| Clc1ccc2cc(-c3csc(C4CCCO4)n3)oc2c1 (stereo not drawn) [VPC-18-114] | 92 | 95 | 14 | 25 | – | – |
| COc1ccc2cc(-c3csc(-c4ccco4)n3)oc2c1 [VPC-18-118] | 74 | 92.5 | 1 | 9 | – | – |
| FC(F)(F)c1ccc2cc(-c3coc(-c4ccco4)n3)oc2c1 [VPC-18-120] | 88.9 | 88.8 | 6 | 13 | – | – |
| Clc1ccc2cc(-c3coc(-c4ccco4)n3)oc2c1 [VPC-18-121] | 92.7 | 93.5 | 0 | 8 | – | – |
